These results are taken from ChEMBL document CHEMBL2412960, “Inhibition of Mycobacterium tuberculosis strains H37Rv and MDR MS-115 by a new set of C5 modified pyrimidine nucleosides” (Bioorg Med Chem, 2013).

As usually defined, the MIC99 is the lowest concentration that inhibits either 99% of growth or 99% of the strains tested, depending on the study.

Molecules are shown by their SMILES. In brackets after ≈: the same amount, converted by molar mass. Activity calls are given as the source filed them. No cut-off for these calls is given here.

One data set concerns Saccharomyces cerevisiae. The data set is described as follows: Antifungal activity against Saccharomyces cerevisiae RIA 259. In kind it is functional, organism-based.
The subject of another data set is Aspergillus niger. The data set is described as follows: Antifungal activity against Aspergillus niger INA 00760. The format is functional, organism-based.
The next data set has as its system Pseudomonas aeruginosa. The data set is described as follows: Antibacterial activity against Pseudomonas aeruginosa ATCC 27853. In kind it is functional, organism-based.
Another data set relates to Escherichia coli. The data set is described as follows: Antibacterial activity against Escherichia coli ATCC 25922. In kind it is functional, organism-based.
In data set [1] the test system is Staphylococcus aureus. The data set is described as follows: Antibacterial activity against methicillin-resistant Staphylococcus aureus INA 00761. The format is functional, organism-based.
Data set [2] deals with Leuconostoc mesenteroides. Description: Antibacterial activity against vancomycin-resistant Leuconostoc mesenteroides VKPM B-4177. The format is functional.
Data set [3] has as its system Staphylococcus aureus. The data set is described as follows: Antibacterial activity against methicillin-susceptible Staphylococcus aureus FDA 209P. The format is functional, organism-based.
In a further data set the test system is Micrococcus luteus. The data set is described as follows: Antibacterial activity against Micrococcus luteus NCTC 8340. In kind it is functional, organism-based.
The test system of the next data set is Bacillus mycoides. Description: Antibacterial activity against Bacillus mycoides 537. In kind it is functional, organism-based.
For a further data set, the system named is Bacillus pumilus. The data set is described as follows: Antibacterial activity against Bacillus pumilus NCTC 8241. The format is functional, organism-based.
Another data set concerns Bacillus subtilis. The data set is described as follows: Antibacterial activity against Bacillus subtilis ATCC 6633. The format is functional, organism-based.
For data set [4], the system named is Leuconostoc mesenteroides. Description: Antibacterial activity against vancomycin-resistant Leuconostoc mesenteroides VKPM B-4177 at 95 ug/mL. In kind it is functional.
In data set [5] the test system is Mycobacterium tuberculosis. The data set is described as follows: Bacteriostatic activity against Mycobacterium tuberculosis H37Rv assessed as growth inhibition. In kind it is functional.
The subject of data set [6] is Mycobacterium tuberculosis. Description: Bacteriostatic activity against Mycobacterium tuberculosis H37Rv assessed as growth inhibition at 10 ug/mL relative to control. Particulars: read-out: GI. The format is functional.
For data set [7], the system named is Mycobacterium tuberculosis. Description: Bacteriostatic activity against Mycobacterium tuberculosis H37Rv assessed as growth inhibition at 50 ug/mL relative to control. In kind it is functional. Particulars: read-out: GI.
Data set [8] relates to Mycobacterium tuberculosis. The data set is described as follows: Bacteriostatic activity against Mycobacterium tuberculosis H37Rv assessed as growth inhibition at 100 ug/mL relative to control. In kind it is functional. Particulars: read-out: GI.
The test system of data set [9] is Mycobacterium tuberculosis. The data set is described as follows: Bacteriostatic activity against Mycobacterium tuberculosis H37Rv assessed as growth inhibition at 20 ug/mL relative to control. The settings on record: read-out: GI. In kind it is functional.
A short description of data set [10]: Cytotoxicity against human A549 cells after 72 hrs by MTT assay. In kind it is cell-based. The settings on record: read-out: CD50.
Data set [11] in a line: Cytotoxicity against human Jurkat cells after 72 hrs by MTT assay. Particulars: read-out: CD50. The format is cell-based. (In general: Tetrazolium assays rely on reduction of a dye to a coloured formazan, in cell work by metabolically active cells.)
The nature of data set [12]: Cytotoxicity against African green monkey Vero cells after 72 hrs by MTT assay. The format is cell-based. Particulars: chlorocebus sabaeus, read-out: CD50.
Data set [13] relates to Mycobacterium tuberculosis. Description: Bacteriostatic activity against Mycobacterium tuberculosis H37Rv assessed as growth inhibition at 200 ug/mL relative to control. In kind it is functional. The settings on record: read-out: GI.
Data set [14] concerns Mycobacterium tuberculosis. The data set is described as follows: Bacteriostatic activity against Mycobacterium tuberculosis H37Rv assessed as growth inhibition at 1 ug/mL relative to control. Particulars: read-out: GI. The format is functional.
Data set [15] deals with Mycobacterium tuberculosis. Description: Bacteriostatic activity against Mycobacterium tuberculosis H37Rv assessed as growth inhibition at 5 ug/mL relative to control. In kind it is functional. The settings on record: read-out: GI.

Regarding `CCCCCCCCCCCCOCc1cn([C@@H]2C[C@H](O)[C@@H](CO)O2)c(=O)[nH]c1=O`, the result (in the data set with Saccharomyces cerevisiae; in the data set on Aspergillus niger; with Pseudomonas aeruginosa; in the data set with Escherichia coli; in the data set with Staphylococcus aureus [1]; in [2]) was inactive. Further, the result in the data set on Staphylococcus aureus [3], with Micrococcus luteus, with Bacillus mycoides, in the data set with Bacillus pumilus and with Bacillus subtilis was inactive. Also, in [4], the result was Active. In addition, the MIC99 in data set [5] came out at 20 µg/mL (≈ 46.9 µM). Besides, the inhibition of growth at 10 µg/mL in data set [6] worked out at 90%. Moreover, the inhibition of growth at 50 µg/mL in [7] turned out to be 100%. Besides, the inhibition of growth at 100 µg/mL in data set [8] worked out at 100%. The inhibition of growth at 20 µg/mL in [9] is 99%. Also, the values for the CC50 at 72 h in [10], in data set [11] and in data set [12] were 45 µg/mL (≈ 105 µM), 40 µg/mL (≈ 93.8 µM) and above 100 µg/mL, respectively.

For `CCCCCCCCCCCCOCc1cn([C@H]2C[C@H](O)[C@@H](CO)O2)c(=O)nc1N`, the MIC99 in data set [5] was found to be 200 µg/mL (≈ 470 µM). The inhibition of growth at 200 µg/mL in data set [13] worked out at 100%. For the same compound, the figures for the CC50 at 72 h in data set [10], in data set [11] and in data set [12] were 45 µg/mL (≈ 106 µM), 37 µg/mL (≈ 86.9 µM) and above 100 µg/mL, respectively.

For the compound `CCCCCCCCCCCCCCOCc1cn([C@H]2C[C@H](O)[C@@H](CO)O2)c(=O)[nH]c1=O`, in data set [5], the MIC99 came to 200 µg/mL (≈ 440 µM). Moreover, the inhibition of growth at 200 µg/mL in data set [13] turned out to be 100%. Also, the CC50 at 72 h in data set [12] is above 100 µg/mL.

As for `CCCCCCCCCCCCOCc1cn([C@H]2C[C@H](N=[N+]=[N-])[C@@H](CO)O2)c(=O)[nH]c1=O`, the MIC99 in [5] was 200 µg/mL (≈ 443 µM). The inhibition of growth at 200 µg/mL in data set [13] was 100%. Besides, the CC50 at 72 h is 10 µg/mL (≈ 22.1 µM) in [10], 8 µg/mL (≈ 17.7 µM) in data set [11] and 15 µg/mL (≈ 33.2 µM) in data set [12].

With `CO[C@H]1/C=C/O[C@@]2(C)Oc3c(C)c(O)c4c(O)c(c(/C=N/N5CCN(C)CC5)c(O)c4c3C2=O)NC(=O)/C(C)=C\C=C\[C@H](C)[C@H](O)[C@@H](C)[C@@H](O)[C@@H](C)[C@H](OC(C)=O)[C@@H]1C` [RIFAMPIN], the MIC99 in data set [5] came out at 1 µg/mL (≈ 1.22 µM). In data set [14], the inhibition of growth at 1 µg/mL amounted to 100%. Also, the CC50 at 72 h in data set [12] was above 500 µg/mL.

As for `CCCCCCCCCCCCOCc1cn([C@H]2C[C@H](O)[C@@H](CO)O2)c(=O)[nH]c1=O`, the result (with Saccharomyces cerevisiae; in the data set on Aspergillus niger; with Pseudomonas aeruginosa; in the data set with Escherichia coli; with Staphylococcus aureus [1]; in [2]) was inactive. The result in the data set with Staphylococcus aureus [3], in the data set with Micrococcus luteus, in the data set on Bacillus mycoides, with Bacillus pumilus and in the data set with Bacillus subtilis was inactive. Further, the MIC99 in data set [5] turned out to be 20 µg/mL (≈ 46.9 µM). The inhibition of growth at 5 µg/mL in [15] was 25%. Further, the inhibition of growth at 10 µg/mL in data set [6] was 90%. In addition, the inhibition of growth at 50 µg/mL in data set [7] was determined as 100%. Further, in data set [8], the inhibition of growth at 100 µg/mL was found to be 100%. The inhibition of growth at 20 µg/mL in data set [9] stood at 100%. Besides, the CC50 at 72 h in data set [10] was 100 µg/mL (≈ 234 µM); in data set [11] it was 100 µg/mL (≈ 234 µM); in [12] it was above 100 µg/mL.
